The target of this assay is lck (Homo sapiens, UniProt P06239). Briefly: cell-based.

Molecules are shown by their SMILES.

The term IC50 denotes the concentration that gives 50% inhibition. A lower IC50 goes with greater potency in that assay.

Chain of lck (P06239 whole entry): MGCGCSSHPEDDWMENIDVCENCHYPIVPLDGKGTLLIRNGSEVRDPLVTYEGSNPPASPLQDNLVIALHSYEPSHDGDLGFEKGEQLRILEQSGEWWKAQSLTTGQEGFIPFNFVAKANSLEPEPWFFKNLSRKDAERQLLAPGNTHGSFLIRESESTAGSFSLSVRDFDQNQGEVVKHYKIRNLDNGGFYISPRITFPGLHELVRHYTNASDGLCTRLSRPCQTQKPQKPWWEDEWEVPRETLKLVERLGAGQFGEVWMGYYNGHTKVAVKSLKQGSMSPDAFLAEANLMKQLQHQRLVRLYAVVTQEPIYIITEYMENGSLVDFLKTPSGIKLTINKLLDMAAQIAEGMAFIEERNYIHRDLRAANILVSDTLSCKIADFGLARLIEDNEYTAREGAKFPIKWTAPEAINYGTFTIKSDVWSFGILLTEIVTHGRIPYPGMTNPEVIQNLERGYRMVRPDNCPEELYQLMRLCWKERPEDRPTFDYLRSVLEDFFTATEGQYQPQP

Consider `N#CC(=C(/N)Sc1ccccc1N)/C(C#N)=C(\N)Sc1ccccc1N` [U0126], for which the IC50 is more than 30 µM.

Values taken from patent publication US20150185215A1, “Cell-Based Assays For Post-Translational Enzyme Activity” (Cell Assay Innovations, Inc., priority 2012, published 2015).
